Laboratory results taken from ChEMBL document CHEMBL1158814, “Lehualides A-D, metabolites from a Hawaiian sponge of the genus Plakortis” (J Nat Prod, 2005).
Values after ≈ are worked out from the molar mass of the structure shown.

What was measured:
[1] = Toxicity against brine shrimp; type: organism-based; conditions: artemia, in vivo; read-out: LD50 (the source's name)
[2] = Cytotoxicity against human IGROV-ET cells; type: functional
[3] = tested on: K562; experiment: Cytotoxicity against human K562 cells; type: functional

Row | SMILES | LC50 [1] [mg/L] | GI50 [2] [µM] | GI50 [3] [µM]
1 | COc1c(O)c(C)c(C/C=C(\C)CC/C=C(/C)C/C(C)=C/Cc2ccccc2)oc1=O [LEHUALIDE A] | 50 (≈ 118 µM) |  | 
2 | COc1oc(C/C=C(\C)CC/C=C(/C)C/C(C)=C/Cc2ccccc2)c(C)c(=O)c1OC [LEHUALIDE B] | 15 (≈ 34.4 µM) | 0.83 | 
3 | COc1oc(C/C=C(\C)CCCCCCCCCSC(C)=O)c(C)c(=O)c1OC [LEHUALIDE C] | 15 (≈ 35.3 µM) |  | 
4 | COc1oc(C/C=C(\C)CCCCCCCCCS)c(C)c(=O)c1OC [LEHUALIDE D] | 15 (≈ 39.2 µM) | 0.73 | 0.23
